From ChEMBL document CHEMBL3102783, “Structural studies, homology modeling and molecular docking of novel non-competitive antagonists of GluK1/GluK2 receptors” (Bioorg Med Chem, 2014)

Legend:
[1] = molecular target: T1, Glutamate receptor ionotropic, kainate 1 (Homo sapiens, UniProt P39086); assay: Displacement of [3H]-kainate from GluK1 receptor (unknown origin) at 100 uM
[2] = molecular target: T2, Glutamate receptor ionotropic, kainate 2 (Homo sapiens, UniProt Q13002); assay: Displacement of [3H]-kainate from GluK2 receptor (unknown origin) at 100 uM
[3] = molecular target: T1, Glutamate receptor ionotropic, kainate 1; assay: Displacement of [3H]-kainate from GluK1 receptor (unknown origin)
[4] = molecular target: T2, Glutamate receptor ionotropic, kainate 2; assay: Displacement of [3H]-kainate from GluK2 receptor (unknown origin)

T1 sequence (P39086 whole entry): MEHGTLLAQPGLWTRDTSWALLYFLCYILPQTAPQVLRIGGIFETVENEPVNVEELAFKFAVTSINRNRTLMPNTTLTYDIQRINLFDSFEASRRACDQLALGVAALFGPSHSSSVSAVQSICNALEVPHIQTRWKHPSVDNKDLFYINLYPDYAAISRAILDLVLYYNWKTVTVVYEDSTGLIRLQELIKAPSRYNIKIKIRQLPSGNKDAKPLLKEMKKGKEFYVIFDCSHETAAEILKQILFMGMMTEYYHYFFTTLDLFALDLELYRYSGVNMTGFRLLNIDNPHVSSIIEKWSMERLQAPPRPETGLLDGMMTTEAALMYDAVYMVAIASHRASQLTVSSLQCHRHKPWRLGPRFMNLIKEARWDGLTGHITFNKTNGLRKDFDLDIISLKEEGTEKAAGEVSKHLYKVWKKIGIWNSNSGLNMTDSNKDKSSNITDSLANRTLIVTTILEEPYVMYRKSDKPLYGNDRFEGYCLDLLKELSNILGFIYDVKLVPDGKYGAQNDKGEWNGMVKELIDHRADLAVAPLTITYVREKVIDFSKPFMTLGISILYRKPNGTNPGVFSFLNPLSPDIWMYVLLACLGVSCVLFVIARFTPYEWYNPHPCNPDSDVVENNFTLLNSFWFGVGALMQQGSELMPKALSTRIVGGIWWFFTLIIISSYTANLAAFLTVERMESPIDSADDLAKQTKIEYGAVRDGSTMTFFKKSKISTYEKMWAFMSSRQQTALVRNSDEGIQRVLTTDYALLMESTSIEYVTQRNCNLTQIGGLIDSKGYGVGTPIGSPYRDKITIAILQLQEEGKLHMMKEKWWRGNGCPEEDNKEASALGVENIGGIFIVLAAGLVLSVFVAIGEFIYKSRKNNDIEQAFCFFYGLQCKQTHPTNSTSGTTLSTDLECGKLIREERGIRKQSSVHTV
T2 sequence (Q13002 whole entry): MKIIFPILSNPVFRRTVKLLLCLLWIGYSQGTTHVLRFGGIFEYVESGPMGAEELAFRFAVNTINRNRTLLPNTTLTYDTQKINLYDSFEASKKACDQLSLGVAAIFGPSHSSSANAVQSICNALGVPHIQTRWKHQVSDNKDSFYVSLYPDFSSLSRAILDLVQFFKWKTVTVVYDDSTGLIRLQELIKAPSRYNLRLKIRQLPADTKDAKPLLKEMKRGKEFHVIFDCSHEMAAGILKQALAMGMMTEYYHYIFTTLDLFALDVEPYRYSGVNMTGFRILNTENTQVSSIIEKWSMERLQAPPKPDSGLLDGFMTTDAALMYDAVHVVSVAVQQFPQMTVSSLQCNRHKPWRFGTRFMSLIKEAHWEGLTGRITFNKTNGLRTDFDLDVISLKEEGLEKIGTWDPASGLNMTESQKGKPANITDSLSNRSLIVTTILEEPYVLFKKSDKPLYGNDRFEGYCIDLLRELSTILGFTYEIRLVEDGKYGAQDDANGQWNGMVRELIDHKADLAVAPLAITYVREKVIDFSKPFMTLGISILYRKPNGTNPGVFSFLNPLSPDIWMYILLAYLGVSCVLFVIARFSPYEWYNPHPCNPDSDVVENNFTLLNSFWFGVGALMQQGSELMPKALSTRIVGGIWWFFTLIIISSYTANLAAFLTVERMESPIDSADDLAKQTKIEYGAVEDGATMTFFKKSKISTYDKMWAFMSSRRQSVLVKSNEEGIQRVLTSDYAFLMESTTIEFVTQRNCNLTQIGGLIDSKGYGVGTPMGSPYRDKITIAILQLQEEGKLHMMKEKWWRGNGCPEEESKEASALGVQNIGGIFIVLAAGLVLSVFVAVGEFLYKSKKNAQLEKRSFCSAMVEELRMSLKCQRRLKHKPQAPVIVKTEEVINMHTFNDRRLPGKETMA

COc1ccc(-c2c(C)c3cc(OC)ccc3n2Cc2ccc(Cl)cc2)cc1
inhibition [1]: 0% | inhibition [2]: 20%

CCn1c(-c2ccccc2)cc2cc(OC)ccc21
IC50 [3]: 12 µM | IC50 [4]: 6.7 µM

CCn1c(-c2ccc(OC)cc2)c(C)c2cc(OC)ccc21
IC50 [3]: 4 µM | IC50 [4]: 0.7 µM

CCn1c2c(c3cc(OC)ccc31)CCc1ccccc1-2
inhibition [1]: 0% | inhibition [2]: 1%

CCn1c(-c2ccccc2)c(C)c2cc(OC)ccc21
IC50 [4]: 6 µM | inhibition [1]: 32%

CCn1c(-c2ccc(OC)cc2)c(C)c2ccccc21
IC50 [4]: 10 µM | inhibition [1]: 32%
